Data published in patent US20070117839A1, “Two cyclic cinnamide compound” (Eisai R&D Management Co., Ltd., priority 2005, published 2007).

System: Aβ 42 Production
Experiment: Quantification of Aβ peptide in culture of neurons from rat fetus brain (Aβ ELISA)
Format: cell-based
Conditions: Neuron, 72 h; rat primary neuronal culture (embryonic day 18 Wistar rat cerebral cortex), cultured three days after addition of the compound, Aβx-42 ELISA of the medium; read-out: Activity for reducing Aβ 42 Production IC50
Description: Quantification of Aβ Peptide in Culture of Neurons from Rat Fetus Brain
(1) Rat Primary Neuronal Culture
Primary neuronal cultures were prepared from the cerebral cortex of embryonic day 18 Wistar rats (Charles River Japan, Yokohama, Japan). Specifically, the embryos were aseptically removed from pregnant rats under ether anesthesia. The brain was isolated from the embryo and immersed in an ice-cold L-15 medium (Invitrogen Corp. Cat #11415-064, Carlsbad, Calif., USA, or SIGMA L1518, for example). The cerebral cortex was collected from the isolated brain under a stereoscopic microscope. The cerebral cortex fragments collected were enzymatically treated in an enzyme solution containing 0.25% trypsin (Invitrogen Corp. Cat #15050-065, Carlsbad, Calif., USA) and 0.01% DNase (Sigma D5025, St. Louis, Mo., USA) at 37° C. for 30 minutes to disperse the cells. Here, the enzymatic reaction was stopped by adding inactivated horse serum to the solution. The enzymatically treated solution was centrifuged at 1,500 rpm for five minutes to remove the supernatant. 5 to 10 mL of a medium was added to the resulting cell mass. Neurobasal medium (Invitrogen Corp. Cat #21103-049, Carlsbad, Calif., USA) supplemented with 2% B27 supplement (Invitrogen Corp. Cat #17504-044, Carlsbad, Calif., USA), 25 μM 2-mercaptoethanol (2-ME, WAKO Cat #139-06861, Osaka, Japan), 0.5 mM L-glutamine (Invitrogen Corp. Cat #25030-081, Carlsbad, Calif., USA), and Antibiotics-Antimycotics (Invitrogen Corp. Cat #15240-062, Carlsbad, Calif., USA) was used as the medium (Neurobasal/B27/2-ME). However, the above Neurobasal medium not supplemented with 2-ME (Neurobasal/B27) was used for the assay. The cells were redispersed by mild pipetting of the cell mass to which the medium was added. The cell dispersion was filtered through a 40-μm nylon mesh (Cell Strainer, Cat #35-2340, Becton Dickinson Labware, Franklin Lakes, N.J., USA) to remove the remaining cell mass, and thus a neuronal cell suspension was obtained. The neuronal cell suspension was diluted with the medium and then plated in a volume of 100 μl/well at an initial cell density of 5×10^5 cells/cm^2 in a 96-well polystyrene culture plate pre-coated with poly-L or D-lysine (Falcon Cat #35-3075, Becton Dickinson Labware, Franklin Lakes, N.J., USA coated with poly-L-lysine using the method shown below, or BIOCOAT™ cell environments Poly-D-lysine cell ware 96-well plate, Cat #35-6461, Becton Dickinson Labware, Franklin Lakes, N.J., USA). Poly-L-lysine coating was carried out as follows. 100 μg/ml of a poly-L-lysine (SIGMA P2636, St. Louis, Mo., USA) solution was aseptically prepared with a 0.15 M borate buffer (pH 8.5). 100 μl/well of the solution was added to the 96-well polystyrene culture plate and incubated at room temperature for one or more hours or at 4° C. overnight or longer. The coated 96-well polystyrene culture plate was washed with sterile water four or more times, and then dried or rinsed with, for example, sterile PBS or medium, and used for cell plating. The plated cells were cultured in the culture plate at 37° C. in 5% CO2-95% air for one day. Then, the total amount of the medium was replaced with a fresh Neurobasal/B27/2-ME medium, and then the cells were cultured for further three days.
The drug was added to the culture plate on Day 4 of culture as follows. The total amount of the medium was removed from the wells, and 180 μl/well of Neurobasal medium not containing 2-ME and containing 2% B-27 (Neurobasal/B27) was added thereto. A solution of the test compound in dimethyl sulfoxide (hereinafter abbreviated as DMSO) was diluted with Neurobasal/B27 at 10-fold of the final concentration. 20 μl/well of the dilution was added to and sufficiently mixed with the medium. The final DMSO concentration was 1% or less. Only DMSO was added to the control group.
The cells were cultured for three days after addition of the compound, and the total amount of the medium was collected. […]

SMILES	IC50
COc1cc(/C=C2\CC[C@H]3CC[C@@H](c4cc(F)c(F)c(F)c4)N3C2=O)ccc1-n1cnc(C)c1 [Example 3, (E)-(3S)-(3,4,5-trifluorophenyl)-6-[3-methoxy-4-(4-methyl-1H-imidazol-1-yl)benzylidene]-(9S)-hexahydroindolizin-5-one]	63 nM
COc1cc(/C=C2\CC[C@H]3CC[C@@H](c4ccc(F)c(F)c4)N3C2=O)ccc1-n1cnc(C)c1 [Example 6, (E)-(3S)-(3,4-difluorophenyl)-6-[3-methoxy-4-(4-methyl-1H-imidazol-1-yl)benzylidene]-(9S)-hexahydroindolizin-5-one]	120 nM
COc1cc(/C=C2\CC[C@H]3CCC[C@@H](c4ccc(F)cc4)N3C2=O)ccc1-n1cnc(C)c1 [Example 8, (E)-(6S,9aR)-6-(4-fluorophenyl)-3-[3-methoxy-4-(4-methyl-1H-imidazol-1-yl)benzylidene]octahydroquinolizin-4-one]	73 nM
COc1cc(/C=C2\CC[C@@H]3C[C@H](O)C[C@@H](c4ccc(F)cc4)N3C2=O)ccc1-n1cnc(C)c1 [Example 11, (E)-(6S,8S,9aR)-6-(4-fluorophenyl)-8-hydroxy-3-[3-methoxy-4-(4-methyl-1H-imidazol-1-yl)benzylidene]octahydroquinolizin-4-one]	97 nM
COc1cc(/C=C2\CC[C@@H]3CCC[C@@H](c4cc(F)c(F)c(F)c4)N3C2=O)ccc1-n1cnc(C)c1 [Example 13, (E)-(6S,9aS)-6-(3,4,5-trifluorophenyl)-3-[3-methoxy-4-(4-methyl-1H-imidazol-1-yl)benzylidene]octahydroquinolizin-4-one]	91 nM
COc1cc(/C=C2\CC[C@@H]3C[C@H](O)C[C@@H](c4cc(F)c(F)c(F)c4)N3C2=O)ccc1-n1cnc(C)c1 [Example 15, (E)-(6S,8S,9aR)-6-(3,4,5-trifluorophenyl)-8-hydroxy-3-[3-methoxy-4-(4-methyl-1H-imidazol-1-yl)benzylidene]octahydroquinolizin-4-one]	80 nM
COc1cc(/C=C2\CC[C@@H]3C[C@@H](O)C[C@@H](c4cc(F)c(F)c(F)c4)N3C2=O)ccc1-n1cnc(C)c1 [Example 17, (E)-(6S,8R,9aR)-6-(3,4,5-trifluorophenyl)-8-hydroxy-3-[3-methoxy-4-(4-methyl-1H-imidazol-1-yl)benzylidene]octahydroquinolizin-4-one]	68 nM
COc1cc(/C=C2\CC[C@@H]3CCC[C@@H](c4ccc(F)cc4)N3C2=O)ccc1-n1cnc(C)c1 [Example 19, (E)-(6S,9aS)-6-(4-fluorophenyl)-3-[3-methoxy-4-(4-methyl-1H-imidazol-1-yl)benzylidene]octahydroquinolizin-4-one]	129 nM
COc1ccc([C@@H]2CCC[C@@H]3CC/C(=C\c4ccc(-n5cnc(C)c5)c(OC)c4)C(=O)N32)cc1 [Example 30, (E)-(6S,9aR)-3-[3-methoxy-4-(4-methyl-1H-imidazol-1-yl)benzylidene]-6-(4-methoxyphenyl)octahydroquinolizin-4-one]	109 nM
COc1cc(/C=C2\CC[C@H]3CCC[C@@H](c4cccc(F)c4)N3C2=O)ccc1-n1cnc(C)c1 [Example 41, (E)-(6S,9aR)-6-(3-fluorophenyl)-3-[3-methoxy-4-(4-methyl-1H-imidazol-1-yl)benzylidene]octahydroquinolizin-4-one]	47 nM
COc1cc(/C=C2\CC[C@H]3CCC[C@@H](c4ccccc4F)N3C2=O)ccc1-n1cnc(C)c1 [Example 43, (E)-(6S,9aR)-6-(2-fluorophenyl)-3-[3-methoxy-4-(4-methyl-1H-imidazol-1-yl)benzylidene]octahydroquinolizin-4-one]	66 nM
COc1cc(/C=C2\CC[C@@H]3CCC[C@H](c4ccccc4F)N3C2=O)ccc1-n1cnc(C)c1 [Example 44, (E)-(6R,9aS)-6-(2-fluorophenyl)-3-[3-methoxy-4-(4-methyl-1H-imidazol-1-yl)benzylidene]octahydroquinolizin-4-one]	94 nM
COc1cc(/C=C2\CC[C@@H]3C[C@@](C)(O)C[C@@H](c4ccc(F)cc4)N3C2=O)ccc1-n1cnc(C)c1 [Example 45, (E)-(6S,8R,9aR)-6-(4-fluorophenyl)-8-hydroxy-3-[3-methoxy-4-(4-methyl-1H-imidazol-1-yl)benzylidene]-8-methyloctahydroquinolizin-4-one]	160 nM
COc1cc(/C=C2\CC[C@@H]3CC(C)=C[C@@H](c4ccc(F)cc4)N3C2=O)ccc1-n1cnc(C)c1 [Example 49, (E)-(6S,9aR)-6-(4-fluorophenyl)-3-[3-methoxy-4-(4-methyl-1H-imidazol-1-yl)benzylidene]-8-methyl-1,2,3,6,9,9a-hexahydroquinolizin-4-one]	210 nM
COc1cc(/C=C2\C[C@H]3CC[C@@H](c4ccc(F)c(F)c4)N3C2=O)ccc1-n1cnc(C)c1 [Example 54, (E)-(5S,7aR)-5-(3,4-difluorophenyl)-2-[3-methoxy-4-(4-methyl-1H-imidazol-1-yl)benzylidene]hexahydropyrrolidin-3-one]	254 nM
COc1cc(/C=C2\CC[C@H]3CC[C@@H](c4ccc(Cl)cc4)N3C2=O)ccc1-n1cnc(C)c1 [Example 56, (E)-(3S,8aS)-3-(4-chlorophenyl)-6-[3-methoxy-4-(4-methyl-1H-imidazol-1-yl)benzylidene]hexahydroindolizin-5-one]	55 nM
COc1cc(/C=C2\CC[C@H]3CC[C@@H](c4cc(F)c(F)cc4F)N3C2=O)ccc1-n1cnc(C)c1 [Example 57, (E)-(3S,8aS)-3-(2,4,5-trifluorophenyl)-6-[3-methoxy-4-(4-methyl-1H-imidazol-1-yl)benzylidene]hexahydroindolizin-5-one]	62 nM
COc1cc(/C=C2\CC[C@H]3CC[C@@H](c4ccc(F)c(F)c4F)N3C2=O)ccc1-n1cnc(C)c1 [Example 58, (E)-(3S,8aS)-3-(2,3,4-trifluorophenyl)-6-[3-methoxy-4-(4-methyl-1H-imidazol-1-yl)benzylidene]hexahydroindolizin-5-one]	73 nM
COc1cc(/C=C2\CC[C@H]3CC[C@@H](c4cc(F)cc(F)c4)N3C2=O)ccc1-n1cnc(C)c1 [Example 64, (E)-(3S,8aS)-3-(3,5-difluorophenyl)-6-[3-methoxy-4-(4-methyl-1H-imidazol-1-yl)benzylidene]hexahydroindolizin-5-one]	67 nM
COc1cc(/C=C2\CC[C@@H]3CCC[C@@H](c4ccc(F)c(F)c4)N3C2=O)ccc1-n1cnc(C)c1 [Example 65, (E)-(6S,9aS)-6-(3,4-difluorophenyl)-3-[3-methoxy-4-(4-methyl-1H-imidazol-1-yl)benzylidene]octahydroquinolizin-4-one]	68 nM
COc1cc(/C=C2\CC[C@H]3COC[C@@H](c4cc(F)c(F)c(F)c4)N3C2=O)ccc1-n1cnc(C)c1 [Example 83, (E)-(4R,9aS)-7-[3-methoxy-4-(4-methyl-1H-imidazol-1-yl)benzylidene]-4-(3,4,5-trifluorophenyl)hexahydropyrido[2,1-c][1,4]oxazin-6-one]	37 nM
